{
  "source": "patent US7183320B2",
  "about": "“Benzoylsulfonamides and sulfonylbenzamidines for use as antitumour agents” (Eli Lilly and Company, priority 2002, dated 2007)",
  "format_in_all_cases": "in vivo",
  "key": {"[1]": {"test_system": "bFGF-induced neoangiogenesis", "assay": "Rat corneal micropocket assay, bFGF disks", "settings": "160 mg/kg orally by gavage once per day, days 1 through 10; Fisher 344 female rats", "procedure": "Rat Corneal Micropocket Assay\nFisher 344 female rats (145–155 grams; Taconic, Inc., Germantown, N.Y.) were anesthesized with acepromazine (2.5 mg/kg, ip) 20 minutes prior to initiation of 2–3% isoflurane/oxygen inhalation. The body temperature was maintained with a circulating hot water pad. The surgery was performed using an ophthalmic operating microscope (OMS.75 Operating Microscope, TopCon Corporation, Japan). A scalpel blade (#15) was used to make a vertical half-thickness linear corneal incision just lateral to the center of the eye. […] A pocket was formed in the cornea using blunt dissection with corneal scissors (Roboz, Rockville, Md.). Nitrocellulose filters ([…], Millipore, Bedford, Mass.) were cut into small disks using a 20 gauge needle punch. The disks were soaked in 2 μl of human VEGF solution ([…]; R&D Systems) or human basic fibroblast growth factor (0.20 μg/μl; R&D Systems) for 10 minutes on ice. Using forceps, the disks impregnated with the angiogenic factor (VEGF or bFGF) were inserted into the corneal pocket so that the disk is firmly covered with corneal epithelium. […] The images were analyzed by converting the area of interest to high contrast black and white reversed image and counting the bright pixels as a determination of the vascular area. […]"}, "HUMAN BREAST WSU-Br-1": {"test_system": "HUMAN BREAST WSU-Br-1", "assay": "Upstaged human breast WSU-Br-1 xenograft (Table VIII)", "settings": "Balb/C SCID female mice", "description": "(§1) Conventional Murine Tumor and Human Tumor Xenouraft Assays\n(§2) Inhibition of tumors transplanted into mice is an accepted procedure for studying the efficacy of antitumor agents (Corbett, et al., In vivo Methods for Screening and Preclinical Testing; Use of rodent solid tumors for drug discovery., In: Anticancer Drug Development Guide: Preclinical Screening, Clinical Trials, and Approval, B. Teicher (ed), Humana Press Inc., Totowa, N.J., Chapter 5, pages 75–99 (1997); (Corbett, et al., Int., J. Parmacog., 33, Supplement, 102–122 (1995)). Murine tumors or human xenographs were implanted essentially as described by Corbett in In vivo Methods for Screening and Preclimical Testing; Use of rodent solid tumors for drug discovery. Briefly, the murine tumor or human xenograph was implanted subcutaneously using either 12-gauge trocar implants or counted number of cells. The location for the trocar insertion is midway between the axillary and inguinal region along the side of the mouse. The trocar is slipped approximately ¾ of an inch subcutaneously up toward the axilla before discharging the tumor fragment, and pinching the skin as the trocar is removed., Alternatively, human tumor cells prepared from a […] of donor tumors (5×10^6 cells) were implanted subcutaneously in a hind-leg of a male or female nude mouse (Charles River). Either a test compound in vehicle or vehicle alone was administered by intravenous bolus injection (iv), intraperitoneal injection (ip), or oral gavage (po). Each treatment group, as well as a group of untreated control animals, consisted of five animals per group in each experiment. Subcutaneous tumor response was monitored by tumor volume measurement performed twice each week over the course of the experiment (60–120 days). Body weights were taken as a general measure of toxicity. The subcutaneous tumor data were analyzed by determining the median tumor weight for each treatment group over the course of the experiment and calculating the tumor growth delay as the difference in days for the treatment versus the control tumors to reach a volume of either 500 or 1000 mm^3.\n(§3) The compound of Example 110 was tested against a variety of murine and human tumors substantially as described supra. The parameters measured in each experiment are summarized in the following paragraphs. • Tumor Weight(mg)=(a×b^2)/2 where a=tumor length (mm) and b=tumor width (mm). • Tumor Growth Delay=T−C where T is the median time (days) required for the treatment group tumors to reach a predetermined size, and C is the median time (days) for the control group tumors to reach the same size. Tumor-free survivors are excluded from this calculation, and are tabulated separately (Tumor Free).\n(§4) [formula] • where Tumor Growth Delay is as previously defined and Td is tumor volume doubling time (days), estimated from the best fit straight line from a log-linear growth plot of the control group of tumors in exponential growth (100–800 mg range) • % T/C mass—The treatment and control groups are measured when the control group tumors reach approximately 700 to 1200 mg in size (median group). The median tumor weight of each group is determined (including zeros). The T/C value in percent is an indication of antitumor effectiveness. A T/C≦42% is considered significant antitumor activity. A T/C<10% is considered to indicate highly significant antitumor activity. • Body Weight Loss Nadir—A body weight loss nadir (mean of group) of greater than 20% or drug deaths greater than 20% are considered to indicate an excessively toxic dosage in single course trials. • Activity Rating—the Activity Rating is derived from the Log Kill according to the following table: […]"}, "HUMAN OVARIAN BG-1": {"test_system": "HUMAN OVARIAN BG-1", "assay": "Early stage human ovarian BG-1 xenograft (Table IX)", "settings": "Balb/C SCID female mice", "description": "as §1, §2, §3, §4"}, "[2]": {"test_system": "HUMAN SQUAMOUS CELL LUNG CARCINOMA MRI-H165", "assay": "Early stage human squamous cell lung carcinoma MRI-H165 xenograft (Table XI)", "settings": "total dose 600 mg/kg: 100 mg/kg/injection IV on days 3–5 and 10–12; Balb/C SCID female mice", "description": "as §1, §2, §3, §4"}, "[3]": {"settings": "total dose 500 mg/kg: 100 mg/kg/injection IV on days 11–13 and 19–20"}, "[4]": {"settings": "total dose 725 mg/kg: 145 mg/kg/injection IV on days 11–13 and 19–20"}, "[5]": {"settings": "total dose 600 mg/kg: 100 mg/kg/injection IV on days 3–5 and 9–11"}, "[6]": {"settings": "total dose 870 mg/kg: 145 mg/kg/injection IV on days 3–5 and 9–11"}},
  "data": [
    {"smiles": "O=C(NS(=O)(=O)c1ccccc1)c1ccc(Cl)cc1Cl", "note": "[Example 110, N-[2,4-dichlorobenzoyl]phenylsulfonamide]", "values": [
      {"measurement": "inhibition of bFGF-induced neoangiogenesis", "setting": "[1]", "result": "not an effective inhibitor"},
      {"measurement": "% BODY WT LOSS AT NADIR", "setting": "HUMAN BREAST WSU-Br-1; [3]", "result": "+14%"},
      {"measurement": "% T/C MASS", "setting": "HUMAN BREAST WSU-Br-1; [3]", "result": 0, "unit": "%"},
      {"measurement": "ACTIVITY RATING", "setting": "HUMAN BREAST WSU-Br-1; [3]", "result": "++++ (HIGHLY ACTIVE >2.8)"},
      {"measurement": "DRUG DEATHS", "setting": "HUMAN BREAST WSU-Br-1; [3]", "result": "0/5"},
      {"measurement": "GROWTH DELAY", "setting": "HUMAN BREAST WSU-Br-1; [3]", "result": 39, "unit": "days"},
      {"measurement": "LOG KILL", "setting": "HUMAN BREAST WSU-Br-1; [3]", "result": 2.0},
      {"measurement": "TUMOR FREE AT DAY 179", "setting": "HUMAN BREAST WSU-Br-1; [3]", "result": "2/5"},
      {"measurement": "% BODY WT LOSS AT NADIR", "setting": "HUMAN BREAST WSU-Br-1; [4]", "result": "+3.9%"},
      {"measurement": "% T/C MASS", "setting": "HUMAN BREAST WSU-Br-1; [4]", "result": 0, "unit": "%"},
      {"measurement": "ACTIVITY RATING", "setting": "HUMAN BREAST WSU-Br-1; [4]", "result": "++++ (HIGHLY ACTIVE >2.8)"},
      {"measurement": "DRUG DEATHS", "setting": "HUMAN BREAST WSU-Br-1; [4]", "result": "0/5"},
      {"measurement": "GROWTH DELAY", "setting": "HUMAN BREAST WSU-Br-1; [4]", "result": 57, "unit": "days"},
      {"measurement": "LOG KILL", "setting": "HUMAN BREAST WSU-Br-1; [4]", "result": 2.9},
      {"measurement": "TUMOR FREE AT DAY 179", "setting": "HUMAN BREAST WSU-Br-1; [4]", "result": "2/5"},
      {"measurement": "% BODY WT LOSS AT NADIR", "setting": "HUMAN OVARIAN BG-1; [5]", "result": "−3.0", "unit": "%"},
      {"measurement": "% T/C MASS", "setting": "HUMAN OVARIAN BG-1; [5]", "result": 0, "unit": "%"},
      {"measurement": "ACTIVITY RATING", "setting": "HUMAN OVARIAN BG-1; [5]", "result": "++++ (HIGHLY ACTIVE >2.8)"},
      {"measurement": "DRUG DEATHS", "setting": "HUMAN OVARIAN BG-1; [5]", "result": "0/5"},
      {"measurement": "GROWTH DELAY", "setting": "HUMAN OVARIAN BG-1; [5]", "result": 30, "unit": "days"},
      {"measurement": "LOG KILL", "setting": "HUMAN OVARIAN BG-1; [5]", "result": 3.6},
      {"measurement": "TUMOR FREE AT DAY 176", "setting": "HUMAN OVARIAN BG-1; [5]", "result": "0/5"},
      {"measurement": "% BODY WT LOSS AT NADIR", "setting": "HUMAN OVARIAN BG-1; [6]", "result": "−2.0", "unit": "%"},
      {"measurement": "% T/C MASS", "setting": "HUMAN OVARIAN BG-1; [6]", "result": 0, "unit": "%"},
      {"measurement": "ACTIVITY RATING", "setting": "HUMAN OVARIAN BG-1; [6]", "result": "++++ (HIGHLY ACTIVE >2.8)"},
      {"measurement": "DRUG DEATHS", "setting": "HUMAN OVARIAN BG-1; [6]", "result": "0/5"},
      {"measurement": "GROWTH DELAY", "setting": "HUMAN OVARIAN BG-1; [6]", "result": 30.5, "unit": "days"},
      {"measurement": "LOG KILL", "setting": "HUMAN OVARIAN BG-1; [6]", "result": 3.7},
      {"measurement": "TUMOR FREE AT DAY 176", "setting": "HUMAN OVARIAN BG-1; [6]", "result": "1/5"},
      {"measurement": "% BODY WT LOSS AT NADIR", "setting": "[2]", "result": "−2.1", "unit": "% ^"},
      {"measurement": "% T/C MASS", "setting": "[2]", "result": 0, "unit": "%"},
      {"measurement": "ACTIVITY RATING", "setting": "[2]", "result": "++++ (HIGHLY ACTIVE >2.8)"},
      {"measurement": "DRUG DEATHS", "setting": "[2]", "result": "0/5"},
      {"measurement": "GROWTH DELAY", "setting": "[2]", "result": 31, "unit": "days"},
      {"measurement": "LOG KILL", "setting": "[2]", "result": 3.7},
      {"measurement": "TUMOR FREE AT DAY 55", "setting": "[2]", "result": "0/5"}
    ]}
  ]
}
